Patent US20260132129A1 (Genesis Therapeutics, Inc., priority 2022, published 2026)
pIC50: −log10 of the molar value.

Biological target: T1, PI3Kα H1047R (T47D cells) (Homo sapiens, UniProt P42336, H1047R)
T1 construct: endogenous in cells; host or cells: T47D cells
Experiment: PI3Kα cellular assay: pAKT HTRF in T47D cells after EGF stimulation
Assay type: cell-based
Details: for pIC50: T47D cells (PI3Kα H1047R), pAKT S473 HTRF
In short: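 T47D cells (PIK3CA H1047R) serum-starved 16 h, then treated 1 h at 37 °C with compound (10,000 nM top, 3-fold steps to 0.5 nM). After 10 min stimulation with 20 ng/mL EGF, cells were lysed and pAKT measured by HTRF.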

[1] = selectivity T47D (H1047R) over SKBR3 (WT), pAKT HTRF
[2] = 1 hr compound, 20 ng/ml EGF 10 min
[3] = selectivity of T47D (H1047R) over SKBR3 (WT) pAKT IC50

T1 sequence (P42336 whole entry H1047R): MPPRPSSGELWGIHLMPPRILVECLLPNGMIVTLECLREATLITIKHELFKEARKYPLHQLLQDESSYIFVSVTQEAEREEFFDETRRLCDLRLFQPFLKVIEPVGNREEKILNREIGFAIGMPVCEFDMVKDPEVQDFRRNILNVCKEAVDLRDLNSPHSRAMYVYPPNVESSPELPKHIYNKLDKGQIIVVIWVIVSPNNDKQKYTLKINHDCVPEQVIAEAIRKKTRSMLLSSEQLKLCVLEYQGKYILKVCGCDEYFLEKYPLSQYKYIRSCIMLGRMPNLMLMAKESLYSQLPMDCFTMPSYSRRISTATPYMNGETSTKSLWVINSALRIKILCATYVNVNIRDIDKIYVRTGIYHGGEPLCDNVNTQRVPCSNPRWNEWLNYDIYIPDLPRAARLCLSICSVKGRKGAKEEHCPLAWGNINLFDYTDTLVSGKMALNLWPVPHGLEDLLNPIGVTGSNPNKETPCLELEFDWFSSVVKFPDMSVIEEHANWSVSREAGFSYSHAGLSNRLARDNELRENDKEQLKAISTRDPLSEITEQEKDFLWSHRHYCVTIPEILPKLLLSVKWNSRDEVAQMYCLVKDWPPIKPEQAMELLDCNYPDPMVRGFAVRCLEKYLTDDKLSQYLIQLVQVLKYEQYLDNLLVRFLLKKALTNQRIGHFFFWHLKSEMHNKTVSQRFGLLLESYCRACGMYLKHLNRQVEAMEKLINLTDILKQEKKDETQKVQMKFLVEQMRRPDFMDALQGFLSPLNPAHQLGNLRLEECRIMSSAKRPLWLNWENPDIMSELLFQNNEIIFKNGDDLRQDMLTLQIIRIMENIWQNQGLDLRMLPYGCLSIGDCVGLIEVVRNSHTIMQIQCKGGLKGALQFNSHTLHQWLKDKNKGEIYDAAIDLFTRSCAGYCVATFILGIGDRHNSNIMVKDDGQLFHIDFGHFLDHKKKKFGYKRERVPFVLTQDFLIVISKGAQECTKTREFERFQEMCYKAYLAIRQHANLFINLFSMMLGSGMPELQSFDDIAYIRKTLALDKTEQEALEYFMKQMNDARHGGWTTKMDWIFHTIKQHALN
T1 sequence (P27986 whole entry partner): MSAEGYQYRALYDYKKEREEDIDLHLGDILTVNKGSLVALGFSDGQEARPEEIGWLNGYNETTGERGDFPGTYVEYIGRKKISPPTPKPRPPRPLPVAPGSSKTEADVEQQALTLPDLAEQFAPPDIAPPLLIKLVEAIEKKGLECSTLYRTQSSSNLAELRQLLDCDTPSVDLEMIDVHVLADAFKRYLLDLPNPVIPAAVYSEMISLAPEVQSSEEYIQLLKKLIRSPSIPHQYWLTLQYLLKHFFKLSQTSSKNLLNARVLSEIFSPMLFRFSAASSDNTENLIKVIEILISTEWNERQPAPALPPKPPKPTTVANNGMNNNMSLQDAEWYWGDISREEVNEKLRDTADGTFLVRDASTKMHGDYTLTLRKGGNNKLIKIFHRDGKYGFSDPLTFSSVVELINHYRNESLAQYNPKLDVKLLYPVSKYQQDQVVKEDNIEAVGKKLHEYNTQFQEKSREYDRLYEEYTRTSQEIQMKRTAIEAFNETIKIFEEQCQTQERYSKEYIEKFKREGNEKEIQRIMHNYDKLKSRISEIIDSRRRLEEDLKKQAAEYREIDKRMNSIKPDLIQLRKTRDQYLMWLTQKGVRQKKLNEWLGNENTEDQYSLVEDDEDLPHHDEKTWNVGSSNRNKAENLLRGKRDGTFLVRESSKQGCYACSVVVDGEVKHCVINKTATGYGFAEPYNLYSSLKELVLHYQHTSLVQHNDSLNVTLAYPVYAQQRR

Row | Compound | pIC50 (EGF stimulation) | T47D pAKT S473 HTRF IC50 (H1047R): T47D (H1047R) selectivity over SKBR3 (WT) [1] | pIC50 [2] | T47D pAKT S473 HTRF IC50 (H1047R): T47D (H1047R) selectivity over SKBR3 (WT) [3]
1 | Cc1cc([C@@H](C)Nc2ccccc2C(N)=O)c2nc(-c3cccc(C#N)c3)c(C)c(=O)n2c1 [Compound 1137] | > 7.00 | A (A denotes >20-fold) |  | 
2 | Cc1cc([C@@H](C)Nc2cccc(C)c2C(=O)O)c2nc(C3CCOCC3)cc(=O)n2c1 [Compound 330] |  | C (C denotes ≤5-fold) | < 5.70 | 
3 | Cc1cc(C(C)Nc2cc(F)ccc2C(=O)O)c2nc(N3CCOCC3)cc(=O)n2c1 (stereo not shown) [Compound 289] |  | C (C denotes ≤5-fold) | 6.30 to 7.00 | 
4 | Cc1cc([C@H](C)Nc2cccc(F)c2C(=O)O)c2nc(N3CCOCC3)cc(=O)n2c1 [Compound 331] |  | C (C denotes ≤5-fold) | < 5.70 | 
5 | Cc1cc([C@@H](C)Nc2ccccc2C(=O)O)c2nc(-c3ccc(CC4CCN(C)CC4)cc3)c(C)c(=O)n2c1 [Compound 307] |  | B (B denotes 20-fold≥value>5-fold) | 5.70 to 6.30 | 
6 | C=CC(=O)Nc1ccc(C(=O)O)c(N[C@H](C)c2cc(C)cn3c(=O)c(C)c(N4Cc5ccccc5C4)nc23)c1 [Compound 1121] | < 5.70 | C (C denotes ≤5-fold) |  | 
7 | Cc1cc(C(C)Nc2ccccc2C(=O)O)c2nc(N3CCN(C(=O)CN)CC3)cc(=O)n2c1 (stereo not shown) [Compound 527] |  | C (C denotes ≤5-fold) | < 5.70 | 
8 | Cc1cc([C@H](C)Oc2ccccc2C2(O)CS(=O)(=O)C2)c2nc(-c3cccc(F)c3)c(C)c(=O)n2c1 (single isomer, unassigned) [Compound 1393] | > 7.00 | A (A denotes >20-fold) |  | 
9 | Cc1cc([C@@H](C)Nc2ccccc2C(=O)O)c2nc(N3CCC(C)(C)CC3)cc(=O)n2c1 [Compound 727] | < 5.70 |  |  | C (C denotes ≤5-fold)
10 | Cc1cc([C@@H](C)Nc2ccccc2C(=O)O)c2nc([C@@H]3CCCOC3)c(C)c(=O)n2c1 [Compound 1280] | > 7.00 | A (A denotes >20-fold) |  | 
11 | Cc1cc([C@@H](C)Nc2c(F)cccc2C(=O)O)c2nc(N3CCOCC3)cc(=O)n2c1 [Compound 333] |  | C (C denotes ≤5-fold) | < 5.70 | 
12 | Cc1cc([C@H](C)Nc2ccccc2C(=O)O)c2nc(-c3ccc4[nH]c(=O)oc4c3)cc(=O)n2c1 [Compound 542] |  | C (C denotes ≤5-fold) | < 5.70 | 
13 | Cc1cc([C@@H](C)Nc2cc(F)cc(F)c2)c2nc(N3CCOCC3)cc(=O)n2c1 [Compound 263] |  | C (C denotes ≤5-fold) | 5.70 to 6.30 | 
14 | Cc1cc(C(C)Nc2ccccc2C(=O)O)c2nc(-c3ccc4[nH]cnc4c3)cc(=O)n2c1 (stereo not shown) [Compound 515] |  | B (B denotes 20-fold≥value>5-fold) | 5.70 to 6.30 | 
15 | Cc1cc(C(C)Nc2ccccc2C(=O)O)c2nc(-c3c(C)ccc4c3cnn4C)cc(=O)n2c1 (stereo not shown) [Compound 817] | < 5.70 |  |  | C (C denotes ≤5-fold)
16 | Cc1cc([C@H](C)Nc2ccccc2C(=O)O)c2nc(-c3ccc4c(c3)COC4)cc(=O)n2c1 [Compound 852] |  |  |  | C (C denotes ≤5-fold)
17 | Cc1cc([C@@H](C)Nc2ccccc2C(=O)O)c2nc(N3CC(Cl)C3)cc(=O)n2c1 [Compound 364] |  | A (A denotes >20-fold) | > 7.00 | 
18 | CCC(Nc1ccccc1C(=O)O)c1cc(C)cn2c(=O)cc(N3CCOCC3)nc12 (stereo not shown) [Compound 132] |  | C (C denotes ≤5-fold) | 5.70 to 6.30 | 
19 | Cc1cc([C@@H](C)Nc2ccccc2C(=O)O)c2nc(-c3ccc4c(c3)c(C)nn4C3CC3)c(C)c(=O)n2c1 (single isomer, unassigned) [Compound 892] | > 7.00 |  |  | A (A denotes >20-fold)
20 | Cc1cc(C(C)Nc2ccccc2C(=O)O)c2nc(-c3ccc(C(C)C)nc3)c(C)c(=O)n2c1 (stereo not shown) [Compound 1178] | > 7.00 | A (A denotes >20-fold) |  | 
21 | Cc1cc([C@H](C)Nc2ccccc2C(=O)O)c2nc(C3CCN(C(=O)C4(N)CC4)CC3)cc(=O)n2c1 [Compound 526] |  | C (C denotes ≤5-fold) | < 5.70 | 
22 | Cc1cc([C@H](C)N[C@@H]2CCCC[C@@H]2C(=O)O)c2nc(N3CCOCC3)cc(=O)n2c1 [Compound 906] | < 5.70 |  |  | C (C denotes ≤5-fold)
